In EPA's ToxValDB 9.5 (doi:10.2903/j.efsa.2014.3524):

Experiments:
Rattus norvegicus = details: acute; oral; mortality
Bird = details: oral, mortality; for LD50: acute, unspecified; for LC50: short-term, feed

CCC=CC=CCCCCCCOC(C)=O (stereo in doubt) [(7Z,9E)-Dodeca-7,9-dienyl acetate]
LD50 (Rattus norvegicus): > 5000 mg/kg

C/C=C/C=C/CCCCCCCO [(8E,10E)-8,10-Dodecadien-1-ol]
LD50 (Bird): > 2050 mg/kg | LD50 (Rattus norvegicus): > 5000 mg/kg

CCC/C=C/CCCCCCCOC(C)=O [(E)-Dodec-8-enyl acetate]
LD50 (Rattus norvegicus): > 5000 mg/kg

CCCC/C=C\CCCCCCCCOC(C)=O [(Z)-9-Tetradecenyl acetate]
LD50 (Rattus norvegicus): > 5000 mg/kg

CCCC/C=C\CCCCCCCCCC=O [(Z)-11-Hexadecenal]
LD50 (Bird): > 2250 mg/kg | LC50 (Bird): > 5620 mg/kg | LD50 (Rattus norvegicus): > 5000 mg/kg

CC/C=C\CCCCCCCCOC(C)=O [(Z)-Dodec-9-enyl acetate]
LD50 (Rattus norvegicus): > 5000 mg/kg

CC/C=C\CCCCCCCCCCOC(C)=O [(Z)-Tetradec-11-enyl acetate]
LD50 (Rattus norvegicus): > 5000 mg/kg

CCCC/C=C/CC/C=C\CCCCCCOC(C)=O [Hexadeca-7,11-dien-1-yl acetate (Z,E)-]
LD50 (Bird): > 2250 mg/kg | LC50 (Bird): > 5620 mg/kg | LD50 (Rattus norvegicus): > 5000 mg/kg
